Twelve compounds from BindingDB's records for doi:10.1074/jbc.M109.067967 (University of Michigan, 2010) can be followed below.

As usually defined, the pIC50 is the negative decadic logarithm of the IC50, by convention in mol/L. A lower pIC50 goes with a large IC50.

Molecules are shown by their SMILES. pIC50: −log10 of the molar value.

Experiment [1] deals with T1, Plasminogen activator inhibitor 1 (Homo sapiens, UniProt P05121). The experiment in a line: Enzymatic Assay. To be noted: pH 7.8; 23 °C.
Experiment [2] concerns the target T1, Plasminogen activator inhibitor 1. The experiment in a line: Enzyme activity assay using human and murine PAI-1. To be noted: pH 7.8.
Experiment [3] deals with Plasminogen activator inhibitor 1 (Mus musculus, UniProt P22777). The experiment in a line: Enzymatic Assay. To be noted: pH 7.8; 23 °C.

For the compound `O=C(O)c1cc(O)c2c(c1)[C@H]([C@H]1c3cc(C(=O)O)cc(O)c3C(=O)c3c(O[C@@H]4O[C@H](CO)[C@@H](O)[C@H](O)[C@H]4O)cccc31)c1cccc(O[C@@H]3O[C@H](CO)[C@@H](O)[C@H](O)[C@H]3O)c1C2=O` [Sennoside A, G], the pIC50 in experiment [1] is 4.29.

Consider `O=C(OCC1OC(OC(=O)c2cc(O)c(O)c(OC(=O)c3cc(O)c(O)c(O)c3)c2)C(OC(=O)c2cc(O)c(O)c(OC(=O)c3cc(O)c(O)c(O)c3)c2)C(OC(=O)c2cc(O)c(O)c(OC(=O)c3cc(O)c(O)c(O)c3)c2)C1OC(=O)c1cc(O)c(O)c(OC(=O)c2cc(O)c(O)c(O)c2)c1)c1cc(O)c(O)c(OC(=O)c2cc(O)c(O)c(O)c2)c1` (centres undefined) [Tannic Acid, A], for which the values for the negative logarithm of the IC50 (pIC50) in experiment [2], in experiment [1] and in experiment [3] were 8.18, 8.15 and 8.39, respectively.

In experiment [1], `Oc1c(Cl)cc(Cl)c(Cl)c1Cc1c(O)c(Cl)cc(Cl)c1Cl` [SMR000058356] showed a negative logarithm of the IC50 (pIC50) of 5.42.

Turning to `O=C1c2ccc(O)c(O)c2C(=O)c2c(O)ccc(O)c21` [Quinalizarin, E], in experiment [1], the pIC50 is 5.36.

Regarding `O=C(OCCOC(=O)c1cc(O)c(O)c(O)c1)c1cc(O)c(O)c(O)c1` [CDE-008], the pIC50 is 7.36 in experiment [2] and 6.79 in experiment [3].

`O=C(O[C@@H]1Cc2c(O)cc(O)cc2O[C@@H]1c1cc(O)c(O)c(O)c1)c1cc(O)c(O)c(O)c1` [(-)-Epigallocatechin-3-o-gallate] gave a negative-log IC50 (pIC50) in experiment [1] of 7.04.

Take `O=C(O[C@@H]1CCCC[C@H]1OC(=O)c1cc(O)c(O)c(O)c1)c1cc(O)c(O)c(O)c1` [CDE-034]: the pIC50 is 6.94 in experiment [2] and 6.19 in experiment [3].

Take `O=C(Oc1cc(O)cc2c1C[C@@H](OC(=O)c1cc(O)c(O)c(O)c1)[C@@H](c1cc(O)c(O)c(O)c1)O2)c1cc(O)c(O)c(O)c1` [Epigallocatechin-3,5-Digallate, C]: the pIC50 in experiment [1] is 6.48.

Turning to `O=C(O)c1cc(O)c(O)c(O)c1` [Gallic Acid, F], the pIC50 in experiment [1] was 5.18.

For `O=C(OCC(COC(=O)c1cc(O)c(O)c(O)c1)OC(=O)c1cc(O)c(O)c(O)c1)c1cc(O)c(O)c(O)c1` [CDE-082], the negative logarithm of the IC50 (pIC50) in experiment [2] was 7.85; in experiment [3] it was 7.10.

Turning to `O=C(O[C@H]1CCCC[C@H]1OC(=O)c1cc(O)c(O)c(O)c1)c1cc(O)c(O)c(O)c1` [CDE-031], the pIC50 in experiment [2] is 7.70; in experiment [3], 6.88.

For the compound `O=C(Oc1ccccc1OC(=O)c1cc(O)c(O)c(O)c1)c1cc(O)c(O)c(O)c1` [CDE-056], the negative logarithm of the IC50 (pIC50) is 7.13 in experiment [2] and 6.12 in experiment [3].
